Reference: patent publication US20020115642A1, “Beta-lactam antibiotics” (priority 2000, published 2002)

System: S. aureus (ATCC#700260)
Experiment: Bactericidal assay
Assay type: cell-based
Details: 0.6 μg/ml
Description: Compound (9) was added in log-phase S. aureus (ATCC#700260) and incubated at 37° C. The final concentration of cells at hour 0 was 1.3×10^6 cells/ml, and Compound (9) was 0.6 μg/mL. […]
Overnight broth cultures of S. aureus (ATCC#700260) were diluted 100 times into liquid medium and allowed to grow to exponential phase (OD600=0.6). Next the bacteria were diluted into fresh medium to give a working concentration of 10^6 cells/ml. Compound (9) was added to a final concentration of 0.6 μg/ml, and the suspension was incubated at 37° C. […] The samples were diluted at 10^−3×, 10^−4× or 10^−5× fold, and plated onto agar plates. The plates were incubated for 24 hours at 37° C. to obtain a viable cell count.

Structure (SMILES): O=C(Cc1cccs1)N[C@@H]1C(=O)N2C(C(=O)O)=C(COc3cc(Cl)ccc3Oc3ccc(Cl)cc3Cl)CS[C@H]12 [Compound 9, 3-(2-(2,4-Dichlorophenoxy)-5-chlorophenoxy)methyl-7-(2-thienylacetamido)-3-cephem-4-carboxylic acid]
- decrease of the number of viable cells (6 hours incubation): 100 fold
- decrease of the number of viable cells compared with time 0 (24 hour incubation): 10,000 fold
